Test results published in US20190307893A1, “NANOVESICLES WITH PORPHYRIN-LIPID CONJUGATE CORE” (UNIVERSITY HEALTH NETWORK, priority 2016, published 2019).
Entries after “also recorded” stand apart in the source; their conditions may differ.

Legend:
Format in all cases: physicochemical
[1] = Fluorescence properties and quenching of chlorin derivatives in lipid nanovesicles; details: embedded within lipid nanovesicles; for Full width at half max: fluorescence
Protocol: Fluorescence measurements were carried out Fluoromax ut on a Fluoromax-4 spectrofluorometer (Horiba Jobin Yvon, NJ) Fluorescence spectra of intact and detergent disrupted state was measured by exciting samples at 556 nm with a 5 nm slit width and collecting fluorescence from 600 nm to 800 with a 5 nm slit width. Quenching efficiency was calculated by the following equation: […]
(§1) Where F0 and Fdetergent are the integration of fluorescence intensity from 600 nm to 800 nm for intact and detergent-disrupted sample respectively. Circular dichroism spectra was measured in PBS and 0.1% Triton-X100 using a J-815 Circular Dichroism Spectrometer (JASCO Inc.).

[2] = Dynamic light scattering size measurement of chlorin derivatives embedded in liposomes; details: 20% chlorin derivatives embedded within liposomes
Protocol: Lipid film was prepared in the 12 mm×35 mm clear glass threaded vials (Fisher Scientific) by combining 20% of chlorin derivatives (either Zn-MeO-chlorin acid 7, Zn-vinyl-chlorin lipid, MeO-chlorin lipid, or Zn-MeO-chlorin lipid) with 75% DPPC and 5% DPPE-mPEG2000 dissolved in MeOH or chloroform. The lipid solutions were dried under a stream of nitrogen gas for 30 min and further dried under vacuum desiccation for at least 3 h before hydration. One milliliter phosphate buffered saline (PBS) was added to the lipid films and 10 freeze and thaw cycles was performed by sequentially freezing the sample in liquid nitrogen, followed by rapid thawing in a 70° C. water bath. Dispersed particles were then subjected to extrusion by passing samples 10 times through a high pressure extruder loaded with 100 nm polycarbonate filter membranes at 70° C.
(§2) Z-average size and polydispersity of the samples in PBS were measured using a Malvern ZS90 (Instruments, UK). Absorption spectra of each sample was determined by UV spectroscopy (CARY 50 UV/Vis S3 Spectrophotometer, Varian Inc.). Absorption spectra of intact samples was measured in PBS, and that of detergent disrupted samples was measured after adding Triton-X100 so that the final detergent concentration was 0.1% v/v.

[3] = UV/visible absorption and circular dichroism of chlorin-loaded lipid nanovesicles
Protocol: as §2, §1

[4] = UV/visible absorption of chlorin oleylamine loaded lipoprotein nanoparticles; details: for Qy-band wavelength shift: intact lipoprotein nanoparticle in PBS vs monomeric form in methanol, 10:1 DMPC:dye
Protocol: Lipid film was prepared in 12 mm×75 mm clear glass threaded vials (Fisher Scientific) by combining 0.1 μmol (4, 10, 10, 13 or 17) and 1.0 μmol DMPC in chloroform. The lipid solutions were dried under a slow stream of nitrogen gas for 30 min and further dried under a higher stream for at least 1 h before hydration. One mL of phosphate buffered saline (PBS) was added to the dried lipid films and sonicated in a 47° C. water bath for 10 minutes immediately followed by Bioruptor at low frequency (30 kHz) for 30 cycles (30 s on/30 s off) at 40° C. R4F peptide (0.1 μmol; 1 mg/mL in PBS) was added into the rehydrated solution and the mixture was mixed gently at 4° C. overnight. The solution was centrifuged at 13 500 rpm for 20 min subsequently and filtered with a 0.1 μm membrane. Unbound peptide was removed and nanoparticle sample was concentrated using a 10 kDa membrane centrifugal filter (EMD Millipore) by two rounds of centrifugation at 4000 g for 7 min at 4° C.
The UV-Vis absorption spectra of lipoprotein nanoparticles with Zn-containing oleylamine compounds 4, 10 and 17 are shown in FIG. 14. The intact structures are labeled in green (solid line) and methanol-disrupted structures are labeled in black (dashed line).

[5] = Storage stability of nanoparticles at room temperature after freeze-thaw; details: 10 days, PBS, after freeze-thaw rehydration
Protocol: The color of Zn-MeO-chlorin acid (7) and Zn-MeO-chlorinchlorin lipid (11) nanoparticles was monitored after 10 freeze and thaw cycles. Concentration of chlorin dyes in each sample was adjusted to 60 μM. Samples were stored in the dark at room temperature for 10 days.

[6] = 20% loading, intact nanovesicles

Compound | FL λmax [1] [nm] | Stokes Shift [1] | Full width at half max [1] [nm] | Z-average [2] [nm·days] | ordered aggregation in the lipid bilayer ([3]; nanovesicles) | Qy-band wavelength shift [4] [nm] | PDI (polydispersity index) [2] | stability on storage (visible dispersion) [5] | also measured
CCCCCCCCCCCCCCCC(=O)OCC(COP(=O)([O-])OCC[N+](C)(C)C)OC(=O)CC[C@@H]1c2nc(cc3[nH]c(cc4nc(cc5[nH]c6c2CC(=O)c6c5C)C(CC)=C4C)c(COC)c3C)[C@H]1C (some centres unmarked) [MeO-chlorin lipid, 3-Devinyl-3′-methoxymethyl-13^2-demethoxycarbonylpheophorbide-a lipid] | 676 | 10 nm | 40 | 105 ± 1.6 | did not | – | – | – | –
CCCCCCCC/C=C\CCCCCCCCNC(=O)CC[C@@H]1C2=C3CC(=O)c4c(C)c5[n](c43)[Zn][n]3c(c(C)c(CO)c3=CC3=NC(=C5)C(CC)=C3C)=CC(=N2)[C@H]1C [Zn—OH-chlorin oleylamine, Zinc 3-Devinyl-3^1-hydroxyl-13^2-demethoxycarbonylpheophorbide-a oleylamine] | – | – | – | – | – | 61 | – | – | absorption when nanostructures disrupted ([4]; lipoprotein nanoparticles, disrupted): 654 nm; absorption of loaded (intact) nanoparticles ([4]; lipoprotein nanoparticles, intact): 715 nm
Zinc 3-Devinyl-3′-methoxymethyl-13^2-demethoxycarbonylpheophorbide-a lipid [Zn-MeO-chlorin lipid] | 725 | no appreciable Stokes' shift | 15 | 96.0 ± 3.9 | showed ordered aggregation | – | 0.10 ± 0.04 | remained visibly dispersed | Stokes Shift ([1]; listed as Zn—MeO-chlorin lipid): 0 nm; CD spectra [3, 6]: bisignate spectra around the Qy band region; far red-shifted absorption peak [3, 6]: 725 nm; secondary peak red-shift from the monomer absorption [3, 6]: 3 nm; bathochromic shift in the lowest energy absorption band (Qy) ([3]; lipid nanovesicles vs monomeric state in methanol or 0.1% Triton X-100): 72 nm; effect of dye loading beyond 20% on spectra ([3]; loading titrated 1-30 mol % of total lipid): neither UV/Vis spectra nor CD spectra significantly changed

Further lines, with some results ahead:

FL λmax [1] [nm] | Stokes Shift [1] | Full width at half max [1] [nm] | Z-average [2] [nm·days] | ordered aggregation in the lipid bilayer ([3]; nanovesicles) | Qy-band wavelength shift [4] [nm] | PDI (polydispersity index) [2] | Compound | stability on storage (visible dispersion) [5] | also measured
664 | 1 nm | 24 | 113.9 ± 9.6 | – | – | > 0.3 | CCC1=C(C)C2=NC1=Cc1c(C)c3c4[n]1[Zn][n]1c(c(C)c(COC)c1=C2)=CC1=NC(=C4CC3=O)[C@@H](CCC(=O)O)[C@@H]1C [Zn-MeO-chlorin acid, Zinc 3-devinyl-3′-methoxymethy-13^2-demethoxycarbonylpheophorbide-a] | flocculated after 10 days; also recorded: Precipitate was observed | PDI (polydispersity index) ([2]; listed as Zu—MeO-chlorin acid): 0.3 ± 0.2; shift in optical absorption / CD ([3]; nanovesicles, 1% loading for Zn-MeO-chlorin acid, 20% for chlorin lipids): did not demonstrate appreciable shift in optical absorption nor CD
– | – | – | – | – | 8 | – | C=Cc1c(C)c2[n]3c1=CC1=NC(=Cc4c(C)c5c([n]4[Zn]3)C(=C3N=C(C=2)[C@@H](C)[C@@H]3CCC(=O)NCCCCCCCC/C=C\CCCCCCCC)CC5=O)C(CC)=C1C [Zn-vinyl-chlorin oleylamine, Zinc 13^2-demethoxycarbonylpheophorbide-a oleylamine] | – | –
682 | 9 nm | 21 | 101 ± 2.3 | did not | – | – | Zinc 13^2-demethoxycarbonylpheophorbide-a lipid [Zn-vinyl-chlorin lipid] | – | –
